Consider 91 compounds from a melting point compilation (Tetko et al.; mined from patent text by program, amines drawn as free bases though some values may be those of a salt).

Broadly, the melting point is the temperature of the solid-liquid transition. `NC(=O)c1ccccc1NCc1ccc(Cl)cc1` yielded a melting point of 138 to 139 °C.

`Cc1cc(-c2cccc(NC(=O)N[C@@H]3c4cc(C#N)ccc4OC(C)(C)[C@H]3O)c2)on1`: the melting point is 140 to 148 °C.

`Cn1c(=O)cc(-c2cccc(O)c2)c2cccnc21` displayed a melting point of 260 to 261 °C.

With `CCCCCCCCCCc1nnn(C(C(=O)O)c2ccccc2)n1` (stereo unspecified), the melting point fell in the range of 62 to 64 °C.

Regarding `Cc1cc(Br)cc(C(=O)Nc2ccc(F)c(C)n2)n1`, the melting point came out at 182 °C.

`COc1nc(OC)c(C=CC(C)=O)c(OC)n1`: the melting point lay in the range of 98 to 99 °C.

Take `CCOC(C#N)NC(=O)c1ccccc1` (stereo unspecified): the melting point fell in the range of 107 to 110 °C.

`O=C(O)c1ccccc1-c1nnc(-c2ccc(C(F)(F)F)cc2)s1` registered a melting point above 300 °C.

Take `Cc1ccccc1Sc1cncc2sc(C(N)=O)cc12`: the melting point fell in the range of 170 to 172 °C.

With `OC(COc1ccc(F)c(F)c1)CN1CCC(NCc2nc3ccccc3s2)CC1` (single isomer, unassigned; (+)), the melting point worked out at 65.8 °C.

The compound `N#CNC(=N)NC1CCCc2ccccc21` (stereo unspecified) displayed a melting point of 153 to 155 °C.

`CC(O)CNCC(O)COc1ccccc1C#N` (stereo unspecified) showed a melting point of 108 °C.

Consider `Cn1c(COc2ccc(C=O)cc2)nc2cccnc21`, for which the melting point lay within 124 to 125 °C.

The compound `Cn1nc(-c2ccncc2)n(C)c1=S` showed a melting point of 150 to 152 °C.

For `c1ccc(CCn2cnc3cnc4ccccc4c32)cc1`, the melting point is 105 to 108 °C.

The compound `Cc1noc(NS(=O)(=O)c2cc(F)ccc2F)c1Br` yielded a melting point of 123 to 125 °C.

The compound `O=C(Nc1cc(-c2ccnc3c(C(=O)c4cccs4)cnn23)ccc1F)c1ccccc1F` had a melting point of 214 to 216 °C.

With `CC(CCCl)C(=O)Nc1nnc(C(C)(C)C)s1` (stereo unspecified), the melting point was in the range of 124 to 126 °C.

The compound `COC(=O)c1ccc(C(O)c2ccc(C(=O)OC)cc2)cc1` registered a melting point of 116 °C.

`COc1cc(C(=O)O)cc(C(F)(F)F)c1` displayed a melting point of 131 to 135 °C.

Compound `CC(C)(C=O)NC(=O)OC(C)(C)C` registered a melting point of 84 to 85 °C.

The compound `CCCCn1c(=O)[nH]c(C(F)(F)F)c(Cl)c1=O` gave a melting point of 138 to 139 °C.

Take `CCOC(=O)CCCCCCOc1cc2c(c(Cl)c1Cl)C(=O)C(C)(C1CCCC1)C2` (stereo unspecified): the melting point lay in the range of 47 to 50 °C.

On to `COC(=O)N(C)c1cc(C(C)(C)C)no1`, for which the melting point lay in the range of 70.5 to 71.5 °C.

Consider `CN(C)Cc1c[nH]c2c(C(=O)c3ccccc3)cccc12`, for which the melting point is 111 to 114 °C.

`COCn1ccnc1C(O)(c1ccc(F)cc1)c1ccc(F)cc1` showed a melting point of 133 °C.

As to `CNC(=O)C1=CC2(CCOCC2)Oc2ccc([N+](=O)[O-])cc21`, the melting point lay within 183 to 184 °C.

For `COc1c(N2CCC(c3ccccc3CN)C2)c(F)cc2c(=O)c(C(=O)O)cn(C3CC3)c12` (stereo unspecified), the melting point was in the range of 170 to 174 °C.

Compound `COC(=O)CCC1OC(=O)C(O)=C1c1ccccc1` (stereo unspecified) yielded a melting point of 135 to 136 °C.

With `CCC1(CC)OC(=O)Nc2ccc(-c3cccc([N+](=O)[O-])c3)cc21`, the melting point was in the range of 193 to 194 °C.

Compound `COc1ccc(-n2cc(C(=O)O)c3nc4c(C)cccc4cc3c2=O)cc1OC` gave a melting point of 297 to 298 °C.

`CCOC(=O)C1=C(C)N=C(N)C(C)(C(=O)OCC)C1c1ccccc1` (stereo unspecified) gave a melting point of 139 °C.

Take `Cc1ccccc1C=CCC(C(=O)C=Cc1ccc(Cl)cc1)c1ccccc1` (stereo unspecified): the melting point was in the range of 60 to 76 °C.

Turning to `CC(=O)Nc1ccc(OCCOCCOc2ncc(Cl)cn2)cc1`, the melting point was 110 °C.

The compound `COc1cc2cncnc2cc1OC` displayed a melting point of 235 to 237 °C.

For the compound `O=C(O)c1cnn(CCCCN2CCN(c3ncccn3)CC2)c1`, the melting point is 104 to 105 °C.

Turning to `CC(C)(C)C(Cl)=NNc1ccc([N+](=O)[O-])cc1`, the melting point lay within 94.5 to 95.5 °C.

`CCOC(=O)CN(CP(=O)(ONN(C)C)ONN(C)C)C(=O)C(F)(F)F` showed a melting point of 84.5 to 87.5 °C.

Compound `CCCc1cc2ccc(CC(=O)OC)cc2n1C(C)=O` registered a melting point of 85 to 87 °C.

As for `c1ccc(-c2cc(OCCN3CCOCC3)[nH]n2)cc1`, the melting point was found to be 100 °C.

In the case of `CCC(CC)N1C(=O)CCc2c(C)nc(Nc3ccc(C(C)C)cc3Br)nc21`, the melting point lay within 124 to 126 °C.

In turn, `Cc1ccnn1-c1c(Cl)cc(C(F)(F)F)cc1Cl` showed a melting point of 78 to 84 °C.

On to `COCCN(CCOC)c1ccc(Nc2ncc3c(C)c(Br)c(=O)n(C4CCCC4)c3n2)nc1`, for which the melting point lay within 94 to 95 °C.

`O=P1(c2ccccc2)OCc2ccccc21` (stereo unspecified) gave a melting point of 99 to 101 °C.

With `CSC(=Nc1c(C)nn(C)c1C)Nc1cc(Cl)ccc1C`, the melting point lay in the range of 134 to 135 °C.

`CCOc1cc2ncc(C#N)c(N(C)c3ccccc3)c2cc1OCC`: the melting point fell in the range of 153 to 155 °C.

In the case of `COc1ccc(CN2CCc3nc(-c4ccccc4)c4c(c3C2)CO[C@@H](C)C4)cc1`, the melting point was 110 °C.

As for `COc1ccc(C=C2COCC(=Cc3ccc(OC)c(C)c3C)C2=O)c(C)c1C`, the melting point is 225 to 227 °C.

The compound `Cc1cc(C)cc(C(=O)N2CCN(C(=O)CBr)C(c3ccc(Cl)c(Cl)c3)C2)c1` (racemic) had a melting point of 68 to 71 °C.

Consider `CCCCCCCCCCCCCCCCCC(=O)N1CC2(CCCCC2)NC2(CCCCC2)C1`, for which the melting point lay in the range of 56 to 59 °C.

`Cc1cc(C)cc(S(=O)(=O)c2nnc(C(F)(F)F)s2)c1`: the melting point worked out at 110 °C.

For the compound `Cc1ccc(S(=O)(=O)n2ccc3cc(F)cnc32)cc1`, the melting point was determined as 160 °C.

`CN(C)C(=O)c1cc2n(n1)-c1ccc(Cl)cc1C(c1ccccc1)=NC2` registered a melting point of 176 to 178 °C.

In turn, `O=[N+]([O-])c1cn2c(n1)OC(COc1ccc(N3CCN(NCc4ccc(-c5ccc(C(F)(F)F)cc5)cc4)CC3)cc1)CC2` (stereo unspecified) displayed a melting point of 294 to 295 °C.

As for `CCOCCOCCn1ccc2c3c(c(-c4ccccc4Cl)cc21)C(=O)NC3=O`, the melting point is 173 °C.

`C=CCOc1cc(O)c(C=NO)c(Cl)c1` had a melting point of 65 to 66 °C.

In turn, `CSC1=Nc2cc(Cl)ccc2Nc2cscc21` returned a melting point of 111 to 113 °C.

With `Cc1nc(Nc2ccc(Cl)cc2)sc1C(=O)O`, the melting point was above 250 °C.

For the compound `O=C(CCl)Nc1c([N+](=O)[O-])cnn1-c1c(Cl)cc(C(F)(F)F)cc1Cl`, the melting point fell in the range of 130 to 133 °C.

Compound `O=C(CNc1ccccc1F)Nc1ccc(O)cc1` had a melting point of 143 to 146 °C.

Compound `N#Cc1ccccc1-c1cc(-c2cnc3nc(C(F)(F)F)cnn23)ccc1F` gave a melting point of 168 to 174 °C.

Take `Nc1ncc(-c2cnc3ccc(-c4ccc(OCC5(CNC(=O)C6CC6)COC5)cc4)nn23)cc1C(F)(F)F`: the melting point lay in the range of 223 to 225 °C.

Compound `FC(F)(F)Oc1ccc2[nH]c(S)nc2c1` showed a melting point of 305 to 307 °C.

As to `Nc1ccc2c3c(cccc13)C(=O)N(C1CCN(Cc3ccccc3)CC1)C2=O`, the melting point was in the range of 226 to 228 °C.

`CC(C)n1cc(C#N)c(-c2ccc([N+](=O)[O-])o2)n1`: the melting point was 181 to 182 °C.

`O=S(=O)(c1ccccc1)c1ccc(Oc2ccc(Cl)c(Cl)c2)nc1` displayed a melting point of 113 to 114 °C.

With `CCCCCCCc1c(C(C)C)nc(C(C)C)c(CO)c1-c1ccc(F)cc1`, the melting point is 73 to 75 °C.

On to `CS(=O)(=O)Cc1nnc(-c2ccc3occ(-c4cccc(OC(F)(F)F)c4)c3c2)o1`, for which the melting point was in the range of 162 to 163 °C.

In turn, `OCc1ccnc(OCc2cn3c(Cl)cccc3n2)c1` had a melting point of 143 to 144 °C.

For `COc1ccc(C2=CCN(CCC(O)c3ccc(C#N)cc3)CC2)cc1` (stereo unspecified), the melting point fell in the range of 144 to 145 °C.

`COC(=O)/C=C/c1ccc(CC(C)NCC(O)c2cccc(C(F)(F)F)c2)cc1` (stereo unspecified) showed a melting point of 80 to 83 °C.

Compound `COc1ccc(C2C=C3CN(C)CCC3C3C(=O)N(C)C(=O)C23)cc1` (stereo unspecified) had a melting point of 129 to 130 °C.

`Cc1ccc(C=C2CCN(C(=O)c3nc4ccc(O)cc4[nH]3)CC2)cc1` returned a melting point of 82 °C.

The compound `CCOP(=O)(Cc1nnc2c(=O)[nH]c3ccc(C(F)(F)F)cc3n12)OCC` came in with a melting point of 204 to 208 °C.

As to `COCCNC(=O)c1nc(C(=O)OC)c2cc(Cc3ccc(F)cc3)cnc2c1OCc1ccccc1`, the melting point came out at 94 °C.

`COc1ccc(CN2CCC(c3cn(Cc4ccco4)c4ccccc34)CC2)cc1C(=O)O` came in with a melting point of 237 to 238 °C.

Consider `CC(C)(C)[C@H]1Cn2c(nc3c(C4OCCO4)cccc32)-c2ccccc2O1`, for which the melting point fell in the range of 150 to 152 °C.

Regarding `CC(C)(C)OC(=O)N1CCN(C(=O)NNC(=O)OCc2ccccc2)CC1`, the melting point was in the range of 194 to 196 °C.

Regarding `CCCn1cc(-c2nc(C#N)c(N)nc2-c2ccccc2)ccc1=O`, the melting point is 180 to 183 °C.

In turn, `CCCNCC1Cc2ccc(-c3ccc(=O)[nH]n3)cc2C1` (stereo unspecified) had a melting point of 144 to 146 °C.

`CN(C)Cc1nc(-c2ncn3c2CN(C)C(=O)c2c(Cl)cccc2-3)no1` showed a melting point of 152 to 153 °C.

Take `CCOC(=O)C=C(C)C=CC=C(C)C=Cc1c(C)cc(OC)c(OC)c1C`: the melting point lay within 203 to 204 °C.

In turn, `CNC(=S)NS(=O)(=O)c1cc(CCNC(=O)c2cc(Cl)ccc2OC)ccc1-c1ccccn1` came in with a melting point of 85 to 86 °C.

In the case of `COc1ccccc1Cc1nc2ccccc2c(=O)n1CCCl`, the melting point was 109 to 111 °C.

The compound `CCOC1OC(=O)CC1NC(=O)C1CCCN1C(=O)C(NC(=O)c1ccc(N)c(Cl)c1)C(C)(C)C` (stereo unspecified) gave a melting point of 96 to 99 °C.

Turning to `O=C(Nc1ccc(Cl)c(Cl)c1)O[C@H]1COC(c2ccccc2)=N[C@@H]1c1ccccc1` (racemic), the melting point is 184 °C.

On to `CN1OCCN(c2cc(Cl)cc(Cl)c2)C1=O`, for which the melting point was 105 to 106 °C.

Take `CN(O)C(=O)NCCCOc1ccc(-c2ccccc2)cc1`: the melting point was 161 to 162 °C.

For the compound `Cc1ccc(S(=O)(=O)Oc2ccc(C=O)cc2)cc1`, the melting point lay in the range of 70 to 72 °C.

For the compound `O=C(CCCl)c1ccc(O)c(Cl)c1Cl`, the melting point is 109 to 111 °C.

Take `CC(C)(C)OC(=O)N1CCc2c(n(CCCc3ccccc3)c3ccc(Cl)c(Cl)c23)CC1`: the melting point is 114 to 116 °C.
